# Measurements taken from BindingDB's records for doi:10.3109/14756366.2012.663363 (Sun Yat-Sen University, 2013).
# What was measured:
# Acetylcholinesterase = Acetylcholinesterase (Electrophorus electricus, UniProt O42275); experiment: In Vitro AChE and BuChE Inhibition Assays; details: pH 8
# Experimental: (§1) Enzyme solutions were prepared to give 2 units/mL in 2 mL aliquots. […] The substrate was added to the assay medium containing enzyme, buffer and DTNB with inhibitor after 15 min of incubation time.
# [1] = target: Carboxylic ester hydrolase (Equus caballus, UniProt Q9N1N9); experiment: In Vitro AChE and BuChE Inhibition Assays; details: pH 8
# Experimental: as §1
# Chain of Acetylcholinesterase (O42275 whole entry): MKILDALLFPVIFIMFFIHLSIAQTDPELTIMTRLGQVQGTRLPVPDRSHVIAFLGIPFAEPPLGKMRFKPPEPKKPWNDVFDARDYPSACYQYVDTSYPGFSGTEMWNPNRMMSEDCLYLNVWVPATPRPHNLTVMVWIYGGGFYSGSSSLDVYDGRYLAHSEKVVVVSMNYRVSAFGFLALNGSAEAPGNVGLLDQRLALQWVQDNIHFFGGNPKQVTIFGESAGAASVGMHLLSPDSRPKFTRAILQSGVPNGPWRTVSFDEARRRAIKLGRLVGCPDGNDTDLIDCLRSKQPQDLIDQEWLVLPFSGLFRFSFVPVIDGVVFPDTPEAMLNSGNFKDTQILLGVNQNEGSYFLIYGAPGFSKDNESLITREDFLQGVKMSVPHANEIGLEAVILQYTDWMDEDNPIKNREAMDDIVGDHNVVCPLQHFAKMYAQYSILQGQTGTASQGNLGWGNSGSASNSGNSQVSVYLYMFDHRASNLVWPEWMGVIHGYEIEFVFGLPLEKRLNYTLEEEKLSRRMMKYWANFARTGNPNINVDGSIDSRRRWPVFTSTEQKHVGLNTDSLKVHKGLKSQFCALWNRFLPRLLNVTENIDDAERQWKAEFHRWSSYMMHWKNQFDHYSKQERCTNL
# Chain of Carboxylic ester hydrolase (Q9N1N9 whole entry): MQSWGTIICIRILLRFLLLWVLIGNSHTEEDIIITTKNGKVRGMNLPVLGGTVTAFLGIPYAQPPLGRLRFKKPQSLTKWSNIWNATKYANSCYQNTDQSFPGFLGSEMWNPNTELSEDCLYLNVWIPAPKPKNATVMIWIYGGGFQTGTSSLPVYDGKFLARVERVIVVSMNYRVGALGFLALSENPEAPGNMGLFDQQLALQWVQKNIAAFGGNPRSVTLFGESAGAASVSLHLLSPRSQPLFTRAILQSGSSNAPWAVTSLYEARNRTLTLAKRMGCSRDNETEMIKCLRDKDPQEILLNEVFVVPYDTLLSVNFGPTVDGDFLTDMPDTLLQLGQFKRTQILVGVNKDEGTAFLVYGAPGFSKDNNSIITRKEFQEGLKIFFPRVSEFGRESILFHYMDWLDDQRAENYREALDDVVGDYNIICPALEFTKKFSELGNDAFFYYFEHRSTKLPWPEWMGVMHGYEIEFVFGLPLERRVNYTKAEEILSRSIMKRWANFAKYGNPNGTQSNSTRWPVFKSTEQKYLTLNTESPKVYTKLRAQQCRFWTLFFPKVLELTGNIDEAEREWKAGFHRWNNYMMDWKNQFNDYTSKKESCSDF
SMILES,IC50 (Acetylcholinesterase),IC50 [1]
"O=C(CCN1CCCC1)Nc1ccc2nc(-c3cc4ccccc4[nH]3)[nH]c(=O)c2c1 [N-(2-(1H-indol-2-yl)-4-oxo-3,4-dihydroquinazolin-6-yl)-3-(pyrrolidin-1-yl)propanamide (3g)]",0.1 µM,0.403 µM
"CCN(CC)CC(=O)Nc1ccc2nc(-c3cc4ccccc4[nH]3)[nH]c(=O)c2c1 [N-(2-(1H-indol-2-yl)-4-oxo-3,4-dihydroquinazolin-6-yl)-2-(diethylamino)acetamide (3a)]",0.503 µM,14.8 µM
"CN1CCN(CCC(=O)Nc2ccc3nc(-c4cc5ccccc5[nH]4)[nH]c(=O)c3c2)CC1 [N-(2-(1H-indol-2-yl)-4-oxo-3,4-dihydroquinazolin-6-yl)-3-(4-methylpiperazin-1-yl)propanamide (3j)]",> 10 µM,> 10 µM
"CCN(CC)CCC(=O)Nc1ccc2nc(-c3cc4ccccc4[nH]3)[nH]c(=O)c2c1 [N-(2-(1H-indol-2-yl)-4-oxo-3,4-dihydroquinazolin-6-yl)-3-(diethylamino)propanamide (3f)]",0.276 µM,2.43 µM
"O=C(CN1CCCCC1)Nc1ccc2nc(-c3cc4ccccc4[nH]3)[nH]c(=O)c2c1 [N-(2-(1H-indol-2-yl)-4-oxo-3,4-dihydroquinazolin-6-yl)-2-(piperidin-1-yl)acetamide (3c)]",0.148 µM,10.2 µM
"O=C(CN1CCOCC1)Nc1ccc2nc(-c3cc4ccccc4[nH]3)[nH]c(=O)c2c1 [N-(2-(1H-indol-2-yl)-4-oxo-3,4-dihydroquinazolin-6-yl)-2-morpholinoacetamide (3d)]",2.02 µM,32.2 µM
"O=C(CCN1CCOCC1)Nc1ccc2nc(-c3cc4ccccc4[nH]3)[nH]c(=O)c2c1 [N-(2-(1H-indol-2-yl)-4-oxo-3,4-dihydroquinazolin-6-yl)-3-morpholinopropanamide (3i)]",1.26 µM,51.6 µM
"CN(C)CCCNc1nc(-c2cc3ccccc3[nH]2)nc2ccccc12 [N1-(2-(1H-indol-2-yl)quinazolin-4-yl)-N3,N3-dimethylpropane-1,3-diamine (9a)]",> 10 µM,> 10 µM
"CCN(CC)CCCNc1nc(-c2cc3ccccc3[nH]2)nc2ccccc12 [N1-(2-(1H-indol-2-yl)quinazolin-4-yl)-N3,N3-diethylpropane-1,3-diamine (9b)]",> 10 µM,> 10 µM
O=c1[nH]c(-c2cc3ccccc3[nH]2)nc2ccccc12 [2-(2-Indolyl-)-4(3H)-quinazolines (2IQ)],> 10 µM,> 10 µM
"CN1CCN(CC(=O)Nc2ccc3nc(-c4cc5ccccc5[nH]4)[nH]c(=O)c3c2)CC1 [N-(2-(1H-indol-2-yl)-4-oxo-3,4-dihydroquinazolin-6-yl)-2-(4-methylpiperazin-1-yl)acetamide (3e)]",> 10 µM,> 10 µM
"O=C(CN1CCCC1)Nc1ccc2nc(-c3cc4ccccc4[nH]3)[nH]c(=O)c2c1 [N-(2-(1H-indol-2-yl)-4-oxo-3,4-dihydroquinazolin-6-yl)-2-(pyrrolidin-1-yl)acetamide (3b)]",0.327 µM,3.1 µM
"O=C(CCN1CCCCC1)Nc1ccc2nc(-c3cc4ccccc4[nH]3)[nH]c(=O)c2c1 [N-(2-(1H-indol-2-yl)-4-oxo-3,4-dihydroquinazolin-6-yl)-3-(piperidin-1-yl)propanamide (3h)]",0.021 µM,7.32 µM
